Laboratory results taken from EPA's ToxRefDB 2.

How the values were obtained:
mouse [1] = conditions: Subchronic oral toxicity in rodents, Feed, dose end: 13 week, group: systemic, systemic / in life observation / body weight / body weight
mouse [2] = conditions: Combined chronic toxicity/carcinogenicity, b6c3f1, Oral, Feed, dose end: 24 month, group: systemic
mouse [3] = conditions: Subchronic oral toxicity in rodents, b6c3f1, Feed, dose end: 13 week, group: systemic
rat [4] = conditions: Developmental neurotoxicity study; sprague dawley; Oral; Gavage/Intubation; dose end: 63 PND; group: cannot be grouped; systemic / in life observation / body weight / offspring (pup) weight
dog [5] = conditions: Subchronic oral toxicity in nonrodent, beagle, Gavage/Intubation, dose end: 18 week, group: systemic, systemic / in life observation / body weight / body weight + systemic / in life observation / clinical signs / ataxia + systemic / in life …
dog [6] = conditions: Chronic toxicity, beagle, Oral, Feed, dose end: 53 week, group: systemic
rat [7] = conditions: Developmental neurotoxicity range-finding study; sprague dawley; Oral; Feed; group: cannot be grouped; developmental / offspring survival late / [other] / [other] + systemic / in life observation / body weight / litter weight
mouse [8] = conditions: Subchronic oral toxicity in rodents, b6c3f1, Feed, dose end: 6 week, group: systemic, systemic / in life observation / mortality / mortality
rat [9] = conditions: Subchronic oral toxicity in rodents, other, Feed, dose end: 6 week, group: systemic, systemic / in life observation / body weight / body weight + systemic / in life observation / mortality / mortality
mouse [10] = conditions: Chronic toxicity; b6c3f1; Oral; Feed; dose end: 80 week; group: systemic; systemic / in life observation / clinical signs / alopecia + systemic / in life observation / clinical signs / distended abdomens + systemic…
rat [11] = conditions: Chronic toxicity; other; Oral; Feed; dose end: 74 week; group: systemic; systemic / in life observation / body weight / body weight + systemic / in life observation / clinical signs / convulsions + systemic / in …
rabbit = conditions: Prenatal developmental toxicity study, dutch, Oral, Gavage/Intubation, dose end: 18 GD
rat [12] = conditions: Combined chronic toxicity/carcinogenicity; fischer; Oral; Feed; dose end: 24 month; group: systemic; systemic / clinical chemistry / alanine aminotransferase (alt/sgpt) / alanine aminotransferase (alt/sgpt) + systemic / in life observation…
mouse [13] = conditions: Carcinogenicity; Oral; Feed; dose end: 24 month; group: systemic; systemic / pathology microscopic / skin / fibrosarcoma + systemic / clinical chemistry / aminopyrine-n-demethylase / aminopyrine-n-…
rat [14] = conditions: Combined chronic toxicity/carcinogenicity, sprague dawley, Oral, Feed, dose end: 24 month, group: systemic
dog [15] = conditions: Subchronic oral toxicity in nonrodent, beagle, Capsule, dose end: 98 day, group: systemic
rat [16] = conditions: Subchronic oral toxicity in rodents, sprague dawley, Feed, dose end: 13 week, group: systemic
dog [17] = conditions: Chronic toxicity, beagle, Oral, Capsule, dose end: 104 week, group: systemic
mouse [18] = conditions: Carcinogenicity, cd1, Oral, Feed, dose end: 78 week, group: systemic
dog [19] = conditions: Subchronic oral toxicity in nonrodent, beagle, Capsule, dose end: 93 day, group: systemic
rat [20] = conditions: Prenatal developmental toxicity study, sprague dawley, Oral, Gavage/Intubation, dose end: 15 GD
rat [21] = conditions: Subchronic oral toxicity in rodents, fischer, Feed, dose end: 90 day, group: systemic
rat [22] = conditions: Combined chronic toxicity/carcinogenicity, fischer, Oral, Feed, dose end: 104 week, group: systemic
dog [23] = conditions: Chronic toxicity; beagle; Oral; Capsule; dose end: 52 week; group: systemic; systemic / in life observation / clinical signs / defecation (diarrhea) + systemic / in life observation / clinical signs / vomitting + …
mouse [24] = conditions: Carcinogenicity, cd1, Oral, Feed, dose end: 78 week, group: systemic; remark: listed apart in the source
[25] = systemic / pathology microscopic / kidney / vacuolization
[26] = systemic / pathology microscopic / kidney / vacuolization + systemic / in life observation / body weight / body weight + systemic / …
[27] = systemic / in life observation / body weight / body weight
[28] = systemic / in life observation / clinical signs / pupillary function (dilation or constriction)
[29] = systemic / in life observation / clinical signs / pupillary function (dilation or constriction) + systemic / clinical chemistry / protein / …
[30] = group: developmental, developmental / developmental malformation / bone / [other] + developmental / developmental malformation / bone / full supernumerary + …
[31] = group: maternal, reproductive / reproductive performance / aborted / aborted + reproductive / reproductive performance / resorptions / resorptions + systemic…
[32] = systemic / in life observation / body weight / body weight + systemic / organ weight / liver / relative to body weight + systemic / clinical…
[33] = systemic / pathology gross / liver / enlarged + systemic / pathology microscopic / liver / glycogen deposition
[34] = systemic / pathology gross / liver / enlarged + systemic / pathology microscopic / liver / glycogen deposition + systemic / clinical …
[35] = systemic / clinical chemistry / aspartate aminotransferase (ast/sgot) / aspartate aminotransferase (ast/sgot)
[36] = systemic / organ weight / liver / absolute + systemic / organ weight / liver / relative to body weight + systemic / clinical chemistry / …
[37] = systemic / in life observation / clinical signs / emesis + systemic / in life observation / clinical signs / salivation + systemic / in life…
[38] = systemic / in life observation / clinical signs / soft stools + systemic / in life observation / clinical signs / emesis
[39] = systemic / in life observation / body weight / body weight gain
[40] = systemic / in life observation / clinical signs / defecation (diarrhea) + systemic / in life observation / clinical signs / vomitting + …
[41] = group: developmental, developmental / developmental malformation / bone / full supernumerary
[42] = group: maternal, systemic / in life observation / body weight / body weight gain + systemic / in life observation / water consumption / water consumption
[43] = group: maternal, systemic / in life observation / body weight / body weight gain + systemic / in life observation / water consumption / water consumption + …
[44] = systemic / in life observation / body weight / body weight gain + systemic / organ weight / brain / relative to body weight + systemic / …
[45] = systemic / organ weight / liver / relative to body weight + systemic / clinical chemistry / beta globulin / beta globulin + systemic / …
[46] = systemic / clinical chemistry / creatine phosphokinase / creatine phosphokinase + systemic / organ weight / liver / absolute + systemic / …
[47] = systemic / pathology microscopic / stomach / dysplasia

## O=C(O)c1cccc(Cl)n1 [6-Chloro-2-picolinic acid]
Mouse [1]
  LEL: 800 mg/kg/day
  LOAEL: 800 mg/kg/day
  NEL: 400 mg/kg/day
  NOAEL: 400 mg/kg/day
Mouse [2]; [25]
  NOAEL: 300 mg/kg/day
Mouse [2]; systemic / pathology microscopic / kidney / vacuolization + systemic / in life observation / body weight / body weight
  LOAEL: 900 mg/kg/day
Mouse [2]; [26]
  LEL: 900 mg/kg/day
Mouse [2]; systemic / pathology microscopic / liver / carcinoma + systemic / organ weight / liver / absolute + systemic / organ weight / liver / …
  NEL: 300 mg/kg/day
Mouse [3]; [27]
  LEL: 400 mg/kg/day
  NEL: 150 mg/kg/day
Mouse [3]; [25]
  LOAEL: 900 mg/kg/day
Mouse [3]; [26]
  NOAEL: 700 mg/kg/day

## CC[C@H](C)[C@H]1O[C@]2(C=C[C@@H]1C)C[C@@H]1C[C@@H](C/C=C(\C)[C@@H](O[C@H]3C[C@H](OC)[C@@H](O[C@H]4C[C@H](OC)[C@@H](O)[C@H](C)O4)[C@H](C)O3)[C@@H](C)/C=C/C=C3\CO[C@@H]4[C@H](O)C(C)=C[C@@H](C(=O)O1)[C@]34O)O2.CO[C@H]1C[C@H](O[C@H]2[C@H](C)O[C@@H](O[C@@H]3/C(C)=C/C[C@@H]4C[C@@H](C[C@]5(C=C[C@H](C)[C@@H](C(C)C)O5)O4)OC(=O)[C@@H]4C=C(C)[C@@H](O)[C@H]5OC/C(=C\C=C\[C@@H]3C)[C@]54O)C[C@@H]2OC)O[C@@H](C)[C@@H]1O [Abamectin]
Rat [4]
  LEL: 0.4 mg/kg/day
  LOAEL: 0.4 mg/kg/day
  NEL: 0.2 mg/kg/day
  NOAEL: 0.2 mg/kg/day
Dog [5]
  LEL: 0.5 mg/kg/day
  LOAEL: 0.5 mg/kg/day
  NEL: 0.25 mg/kg/day
  NOAEL: 0.25 mg/kg/day
Dog [6]; [28]
  LEL: 0.5 mg/kg/day
  LOAEL: 0.5 mg/kg/day
Dog [6]; [29]
  NEL: 0.25 mg/kg/day
  NOAEL: 0.25 mg/kg/day
Rat [7]
  LEL: 0.876 mg/kg/day
  LOAEL: 0.876 mg/kg/day
  NEL: 0.604 mg/kg/day
  NOAEL: 0.604 mg/kg/day

## ClC1=C(Cl)[C@]2(Cl)[C@H]3[C@H]([C@@H]4C=C[C@H]3C4)[C@@]1(Cl)C2(Cl)Cl [Aldrin]
Mouse [8]
  LEL: 6 mg/kg/day
  LOAEL: > 12 mg/kg/day
  NEL: 3 mg/kg/day
  NOAEL: ≥ 12 mg/kg/day
Rat [9]
  LEL: 8 mg/kg/day
  LOAEL: > 16 mg/kg/day
  NEL: 4 mg/kg/day
  NOAEL: ≥ 16 mg/kg/day
Mouse [10]
  LEL: 0.45 mg/kg/day
  LOAEL: > 0.9 mg/kg/day
  NEL: < 0.45 mg/kg/day
  NOAEL: ≥ 0.9 mg/kg/day
Rat [11]
  LEL: 1.5 mg/kg/day
  LOAEL: 1.5 mg/kg/day
  NEL: < 1.5 mg/kg/day
  NOAEL: < 1.5 mg/kg/day

## Cn1cc(-c2ccccc2)c(=O)c(-c2cccc(C(F)(F)F)c2)c1 [Fluridone]
rabbit; [30]
  LEL: 750 mg/kg/day
  LOAEL: > 750 mg/kg/day
  NEL: 300 mg/kg/day
  NOAEL: ≥ 750 mg/kg/day
rabbit; [31]
  LEL: 300 mg/kg/day
  LOAEL: 300 mg/kg/day
  NEL: 125 mg/kg/day
  NOAEL: 125 mg/kg/day
Rat [12]
  LEL: 25.1 mg/kg/day
  LOAEL: > 80.8 mg/kg/day
  NEL: 7.65 mg/kg/day
  NOAEL: ≥ 80.8 mg/kg/day
Mouse [13]
  LEL: 50 mg/kg/day
  LOAEL: > 50 mg/kg/day
  NEL: 15 mg/kg/day
  NOAEL: ≥ 50 mg/kg/day

## CC(C)Oc1cccc(NC(=O)c2ccccc2C(F)(F)F)c1 [Flutolanil]
Rat [14]; systemic / in life observation / body weight / body weight + systemic / organ weight / liver / relative to body weight
  LOAEL: 460 mg/kg/day
Rat [14]; [32]
  LEL: 460 mg/kg/day
  NOAEL: 86.9 mg/kg/day
Rat [14]; systemic / organ weight / liver / relative to body weight
  NEL: 86.9 mg/kg/day
Dog [15]; [33]
  LEL: 400 mg/kg/day
  LOAEL: 400 mg/kg/day
Dog [15]; [34]
  NEL: 80 mg/kg/day
  NOAEL: 80 mg/kg/day
Rat [16]; [35]
  LEL: 37 mg/kg/day
  NEL: < 37 mg/kg/day
Rat [16]; systemic / organ weight / liver / absolute + systemic / organ weight / liver / relative to body weight
  LOAEL: 339 mg/kg/day
Rat [16]; [36]
  NOAEL: 44 mg/kg/day
Dog [17]; [37]
  LOAEL: 250 mg/kg/day
  NOAEL: 50 mg/kg/day
Dog [17]; [38]
  LEL: 50 mg/kg/day
  NEL: < 50 mg/kg/day
Mouse [18]; [39]
  LOAEL: 839 mg/kg/day
Mouse [18]; systemic / in life observation / body weight / body weight gain + systemic / organ weight / liver / absolute + systemic / organ weight / …
  NOAEL: 168 mg/kg/day
Mouse [18]; systemic / pathology microscopic / liver / vacuolization
  LEL: 162 mg/kg/day
Mouse [18]; systemic / pathology microscopic / liver / vacuolization + systemic / in life observation / body weight / body weight gain
  NEL: 32 mg/kg/day

## CCc1nn(C)c(C(=O)NCc2ccc(C(C)(C)C)cc2)c1Cl [Tebufenpyrad]
Dog [19]; systemic / in life observation / clinical signs / defecation (diarrhea) + systemic / in life observation / clinical signs / vomitting
  LOAEL: 10 mg/kg/day
Dog [19]; [40]
  LEL: 10 mg/kg/day
  NEL: 2 mg/kg/day
  NOAEL: 2 mg/kg/day
Rat [20]; [41]
  LEL: 90 mg/kg/day
  LOAEL: 90 mg/kg/day
  NEL: 50 mg/kg/day
  NOAEL: 50 mg/kg/day
Rat [20]; [42]
  LEL: 50 mg/kg/day
  LOAEL: 50 mg/kg/day
Rat [20]; [43]
  NEL: 15 mg/kg/day
  NOAEL: 15 mg/kg/day
Rat [21]; [44]
  LOAEL: 29 mg/kg/day
  NOAEL: 6.8 mg/kg/day
Rat [21]; [45]
  LEL: 0.7 mg/kg/day
  NEL: < 0.7 mg/kg/day
Rat [22]; [46]
  LEL: 0.21 mg/kg/day
  NEL: < 0.21 mg/kg/day
  NOAEL: 0.82 mg/kg/day
Rat [22]; [36]
  LOAEL: 6.52 mg/kg/day
Dog [23]
  LEL: 6 mg/kg/day
  LOAEL: 6 mg/kg/day
  NEL: 1 mg/kg/day
  NOAEL: 1 mg/kg/day
Mouse [24]; [39]
  LOAEL: 64.4 mg/kg/day
Mouse [24]; systemic / in life observation / body weight / body weight gain + systemic / in life observation / body weight / body weight + systemic / …
  NOAEL: 3.6 mg/kg/day
Mouse [24]; [47]
  LEL: 4.2 mg/kg/day
  NEL: < 4.2 mg/kg/day
